Assays:
[1] = target: T1, HSE DNA-binding activity (Homo sapiens, UniProt Q00613); experiment: EMSA using extracts of heat-treated HeLa cells, in the presence of IHSF; type: biochemical; settings: extracts of HeLa cells heat-treated at 43° C. for 30 min; concentrations as high as about 0.5 mM
T1 construct: functionally linked to an hsp70b promoter and therefore controlled by endogenous HSF1; endogenous in cells; host or cells: HeLa cells / HeLa-derived cell line Z74
T1 sequence (Q00613 1-529): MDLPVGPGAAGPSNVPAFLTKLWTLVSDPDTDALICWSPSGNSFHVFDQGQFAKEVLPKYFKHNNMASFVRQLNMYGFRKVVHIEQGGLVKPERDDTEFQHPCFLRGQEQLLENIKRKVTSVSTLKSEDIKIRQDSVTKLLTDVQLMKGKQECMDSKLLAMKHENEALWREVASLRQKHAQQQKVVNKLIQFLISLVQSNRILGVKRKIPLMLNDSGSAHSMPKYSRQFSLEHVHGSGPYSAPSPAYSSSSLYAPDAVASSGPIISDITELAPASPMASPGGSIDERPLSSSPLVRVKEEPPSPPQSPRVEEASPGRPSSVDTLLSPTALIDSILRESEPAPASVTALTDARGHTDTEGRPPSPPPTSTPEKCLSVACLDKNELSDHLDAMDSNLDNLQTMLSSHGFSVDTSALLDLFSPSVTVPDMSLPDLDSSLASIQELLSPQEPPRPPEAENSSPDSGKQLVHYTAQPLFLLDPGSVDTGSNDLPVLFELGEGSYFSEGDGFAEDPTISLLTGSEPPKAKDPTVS
Protocol: Electrophoretic mobility shift assays (EMSA) using a radiolabeled HSE DNA probe were carried out to assess HSF1 DNA-binding activity in extracts of heat-treated (43° C./30 min) HeLa cells that had been exposed to different concentrations of compounds 058 or 115 (FIG. 3A, top panels). […] HSF1 degradation correlated well with the observed decrease in DNA-binding activity. Therefore, HSF1 degradation provides a sufficient explanation for the reduced HSE DNA-binding activity in cells treated with IHSF 058. […] EMSA were also carried out using extracts of HeLa cells that had been heat-treated at 43° C. for 30 min.

[2] = test system: hsp70b promoter-driven fluc gene; experiment: Corroborating experiment in a cell line containing an hsp70b promoter-driven fluc gene; type: cell-based; settings: data not shown
Protocol: The compounds of the afore-mentioned biased sublibrary were screened in cell line Z74 at 12.5 and 25 μM concentrations. Typically, Z74 cultures in 96-well plates were exposed to compound or vehicle for 2 h, heat-treated at 43.0° C. for 30 min, and incubated further for 6 h at 37° C. to allow for accumulation of the luciferases. RLuc and FLuc activities were determined, typically using the Dual-Glo® Luciferase Assay System (Promega Corp., Madison, Wis.), and reading luciferase light counts in a Wallac Microbeta Trilux-1450 Luminometer (PerkinElmer, Waltham, Mass.). IHSF 001 was one of two library compounds that inhibited RLuc expression but not FLuc expression in heat-treated Z74 cells (Table 1; FIG. 2A). Therefore, IHSF 001 is an inhibitor of HSF1 function that specifically acts through the HSF1 DNA-binding domain. […] A corroborating experiment utilized a cell line containing an hsp70b promoter-driven fluc gene. […] IHSF 001 is (E)-ethyl 4-oxo-4-(thiazol-2-ylamino)but-2-enoate. The compound can be obtained from commercial sources (e.g., AKE-PB-90340538, Akos).

[3] = target: T2, HSF1-ATF1 interaction (Homo sapiens, UniProt Q00613); experiment: Anti-FLAG immunoprecipitation of FLAG-tagged HSF1 and WB (HSF1-ATF1 interaction); type: cell-based; settings: HeLa-derived line expressing FLAG-tagged HSF1, heat-treated 30 min at 43° C.
T2 construct: expressed in transfected cells; host or cells: HeLa-derived cell line stably expressing HSF1-FLAG
Source text: Recruitment of HSF1 to target promoters in response to a stress is mediated by ATF1/CREB. Takii, R. et al. (2015) Mol. Cell. Biol. 35: 11-25. ATF1/CREB regulates the stress-induced HSF1 transcription complex that includes BRG1 chromatin-remodeling complex and p300/CBP. The former complex promotes an active chromatin state in the promoters, whereas p300/CBP accelerates the shutdown of HSF1 DNA-binding activity as well as stabilizes HSF1 against proteasomal degradation during recovery from stress. To assess the effects of the IHSF on the assembly of the transcription complex, use was made of a HeLa-derived cell line that stably expresses a C-terminally FLAG-tagged HSF1. Cultures were heat-treated for 30 min at 43° C. in the presence or absence of IHSF 115, extracts were prepared, and tagged HSF1 was immunoprecipitated using an anti-FLAG antibody.

[4] = test system: human cancer cell lines; experiment: Viability of human cancer cell lines (overall statements); type: cell-based; settings: 96-hour exposure; sensitivity varied greatly; no effect of p53 status
Protocol: (§1) Cultures of HeLa cells were exposed for 96 hours to different concentrations of IHSF 001, 058 and 115, and viability was assessed using an Alamar Blue assay. It is noted that this standard assay examines attached cells only. This subject will be discussed in more detail below. […] The relative cytotoxicity of the compounds appears to parallel their respective activities as inhibitors of HSF1 function (inhibition of RLuc expression in Z74 cells). We next examined the viability of different human cancer cell lines subsequent to a 96-hour exposure to compound 115 (Table 3). HSF1 was reported as being required for optimal p21 expression and for p53-mediated cell cycle arrest in response to genotoxins. Logan, I. R. et al. (2009) Nucleic Acids Res. 37: 2962-2971. […] Cell lines of different p53 status were included in the experiments in order to find out whether sensitivity to IHSF 115 was related to p53 status. […] No effect of p53 status could be discovered. It is noted that a number of additional HSF inhibitors of the present disclosure were tested and found to effectively reduce the viability of human cancer cells.

[5] = test system: MM.1S; experiment: Alamar Blue viability assay; type: cell-based, human
Protocol: FIG. 5. (A) Viability of HeLa cell cultures mock-exposed (−) or exposed to the indicated concentrations of compounds 001, 058 or 115. (B) Viability of MM.1S cells mock-exposed (−) or exposed to the indicated concentrations of compound 115. Viability was assayed after 96 hours of exposure using an Alamar Blue assay.
as §1

Compound | HSE DNA-binding activity (EMSA) in the presence of IHSF [1] | FLuc expression in hsp70b promoter-driven fluc line [2] | HSF1-ATF1 interaction (co-immunoprecipitation, WB) [3] | viability of human cancer cell lines [4] | concentration at which complete loss of viability of MM.1S cells occurred ([5]; 96 hours exposure, Alamar Blue) [µM] | EC50 ([5]; Homo sapiens, MM1.S, MM.1S, Multiple myeloma, P53 Wt, 96-hour exposure) [µM] | concentration at which complete loss of viability of MM.1S cells occurred, in some experiments ([5]; in some experiments already) [µM]
CCOC(=O)/C=C/C(=O)Nc1nccs1 [IHSF 001, (E)-ethyl 4-oxo-4-(thiazol-2-ylamino)but-2-enoate] | no reduction | inhibit FLuc expression |  |  |  |  | 
CN(C(=O)/C=C/C1=NCCCO1)c1ncc(-c2cccnc2)s1 [IHSF 115, (E)-3-(5,6-Dihydro-4H-[1,3]oxazin-2-yl)-N-methyl-N-(5-pyridin-3-yl-thiazol-2-yl)-acrylamide] |  |  | dramatically reduced | reduced viability in all cell lines tested | 6.25 | 1.7 | 3.125

— US11597708B2, “Inhibitors of heat shock factors and uses thereof” (HSF Pharmaceuticals SA, priority 2016, dated 2023)
